These are literature values, as cited in patent US7592342B2, “Quinoxaline derivatives as PI3 kinase inhibitors” (SmithKline Beecham Corporation, priority 2007, dated 2009).

As usually defined, the IC50 is the point on the concentration scale where inhibition reaches its midpoint.

For this data set, the target named is CK2 protein kinase (Homo sapiens, UniProt P68400). To be noted: LY294002, literature.
Sequence of CK2 protein kinase (P68400 whole entry): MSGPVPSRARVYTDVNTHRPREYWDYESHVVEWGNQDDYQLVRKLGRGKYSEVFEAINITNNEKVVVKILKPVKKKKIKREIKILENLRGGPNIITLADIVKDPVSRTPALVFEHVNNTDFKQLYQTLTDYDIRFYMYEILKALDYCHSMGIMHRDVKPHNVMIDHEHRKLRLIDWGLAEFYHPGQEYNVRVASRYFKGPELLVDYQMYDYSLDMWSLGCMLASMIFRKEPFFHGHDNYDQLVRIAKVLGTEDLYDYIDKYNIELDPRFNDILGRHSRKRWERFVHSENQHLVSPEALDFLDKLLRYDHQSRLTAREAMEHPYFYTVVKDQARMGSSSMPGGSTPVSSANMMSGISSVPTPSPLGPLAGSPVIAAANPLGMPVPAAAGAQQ

On to `O=c1cc(N2CCOCC2)oc2c(-c3ccccc3)cccc12` [LY294002], for which the IC50 was 5 to 10 µM.
